Values quoted from earlier work as cited in US20230087473A1, “COMPOSITION OF SUSPOEMULSION FORMULATION OF ANTHELMINTIC DRUGS WITH ESSENTIAL OILS FOR NASO-PULMONARY ADMINISTRATION” (priority 2021, published 2023).

Tests used:
SARS-COV-2 = conditions: in-vitro study
Musca Domenstica = conditions: nasal irrigation with ivermectin solution, within 15 minutes
[1] = in vivo

| Molecule | effect on replication of SARS-COV-2 (SARS-COV-2) | larvae self-expulsed by the patient (Musca Domenstica) | bioavailability [1] |
| --- | --- | --- | --- |
| Ivermectin | inhibitory role | approximately 50 larvae | – |
| O=C(Nc1ccc([N+](=O)[O-])cc1Cl)c1cc(Cl)ccc1O [Niclosamide] | – | – | very low bioavailability |
